From US20090076098A1, “METHODS, KITS, AND COMPOUNDS FOR DETERMINING RESPONSIVENESS TO TREATMENT OF A PATHOLOGICAL DISORDER BY EPOTHILONES” (priority 2007, published 2009)
“And” between values parts separate entries of the source, which are not always exact repeats. Equal values may be shown once.

Assays:
[1] = test system: non small cell lung cancer (NSCLC) xenograft models; format: in vivo; conditions: for percentage of tumors with a T/C ratio<20%: share of models; for percentage of responses overall (T/C): share of models responding
Description: FIG. 1: Preclinical lung cancer study design: 22 non small cell lung cancer (NSCLC) xenograft models were derived from patients primary tumors directly after surgery; at low murine passages response to Sagopilone and standard chemotherapy was assessed and samples grouped into responders and non-responders. RNA from untreated control tumors was subjected to Affymetrix gene expression analysis for discrimination of gene expression levels at baseline with tumor response.
Lung cancer xenograft models were established by subcutaneously transplanting fresh tumor material from NSCLC patients into nude mice. Tumor types included pleomorphic carcinoma (7187, 7336), squamous cell carcinoma (7126, 7177, 7298, 7343, 7462, 7433, 7530), dedifferentiated carcinoma (7668), adenocarcinoma (7064, 7198, 7406, 7387, 7466, 7612) and small cell lung cancer ([…]).
Antitumor activity was determined using either the reduction in tumor area in treated versus control mice (T/C ratio), or the mean change in absolute tumor volume compared with volume at baseline (day of first treatment).
1° lung cancer biopsies obtained from patients with established cancer were transplanted into nude mice. Tumor growth curves for the treatment with Etoposide, Carboplatin, Gemcitabine, Taxol, Navelbine, Cetuximab, Erlotinib und Sagopilone were generated. Mutation status of p53 was analyzed in the models according to methods known in the art. Fourteen Sagopilone responders and eight Sagopilone non-responders were characterized in long-term experiments. A PBS control group was treated with PBS or Sagopilone for 24 hrs before sacrifice. RNA for Sagopilone responder and non-responder models were isolated according to methods known in the art and were hybridized onto arrays according to the manufacturer's instructions.

A549 NSCLC cells = assay: A549 NSCLC xenograft in nude mice: Sagopilone combined with acetazolamide; format: in vivo; conditions: acetazolamide 40 mg/day p.o. with Sagopilone 6 or 8 mg/kg, FIG. 11
Description: FIG. 11: A549 NSCLC cells were xenotransplanted into nude mice. Mice were treated starting on day 7 after tumor transplantation as indicated: Sagopilone 6 mg/kg or 8 mg/kg were given on days 17, 32 and 45 after transplantation as indicated by arrows, acetazolamide 40 mg/day p.o. was given either daily or twice a day for five days starting on the day of Sagopilone administration (2 h before and 2 h after application of Sagopilone).

[2] = 22 NSCLC xenograft models, FIG. 4, count

## CC(=O)O[C@H]1C(=O)[C@@]2(C)[C@H]([C@H](OC(=O)c3ccccc3)[C@]3(O)C[C@H](OC(=O)[C@H](O)[C@@H](NC(=O)c4ccccc4)c4ccccc4)C(C)=C1C3(C)C)[C@]1(OC(C)=O)CO[C@@H]1C[C@@H]2O [Paclitaxel]
[1]; lung cancer xenografts
  percentage of tumors with a T/C ratio<20%: 56.2%
  percentage of responses overall (T/C): 81.2%

## C=CC[C@H]1C(=O)C(C)(C)[C@@H](O)CC(=O)O[C@H](c2ccc3sc(C)nc3c2)C[C@@H]2O[C@]2(C)CCC[C@H](C)[C@@H]1O [Sagopilone, (1S,3S,7S,10R,11S,12S,16R)-7,11-Dihydroxy-10-allyl-8,8,12,16-tetramethyl-3-(2-methyl-benzothiazol-5-yl)-4,17-dioxa-bicyclo[14.1.0]heptadecane-5,9-dione]
[1]; [2]
  samples with stable disease: three
  samples with tumor regression: Eleven
[1]; 22 NSCLC xenograft models, count of models
  models being non-responders (tumor progression), clinical criteria: eight
[1]; 22 lung cancer xenografts, tumor volume treated vs control, count of models
  models showing response / tumor growth inhibition by T/C value: 22 and 22 of 22
[1]; lung cancer xenografts, count of models
  number of NSCLC with a T/C ratio<20%: 12
[1]; lung cancer xenografts
  percentage of tumors with a T/C ratio<20%: 76.5%
[1]; model Lu7198, FIG. 3B
  response of xenograft model Lu7198: tumor progression
[1]; model Lu7298, FIG. 3A
  response of xenograft model Lu7298: tumor shrinkage
[1]; vs carboplatin, paclitaxel, gemcitabine, etoposide, vinorelbine, in words
  activity and tolerability compared with commonly used cytotoxic agents in NSCLC: superior activity and tolerability

## CC(=O)Nc1nnc(S(N)(=O)=O)s1 [acetazolamide]
A549 NSCLC cells
  effect of combination with an epothilone on tumor response: sensitization

## N.N.O=C([O-])C1(C(=O)[O-])CCC1.[Pt+2] [carboplatin]
[1]; lung cancer xenografts
  percentage of tumors with a T/C ratio<20%: 25.0%
  percentage of responses overall (T/C): 68.8%

## Nc1ccn([C@@H]2O[C@H](CO)[C@@H](O)C2(F)F)c(=O)n1 [gemcitabine]
[1]; lung cancer xenografts, b271, FIGS. 2a and 2b
  response (percentage of models), criteria not given: 61.5%
[1]; lung cancer xenografts
  percentage of tumors with a T/C ratio<20%: 47.0%
  percentage of responses overall (T/C): 80.0%
[1]; mouse, in vivo
  models in which at least 2 animals per group (n=6) could not be evaluated due to toxicity: seven
  toxicity in xenograft-bearing mice: marked toxicity
[1]; nude, mouse, in vivo
  models in which toxicity prevented evaluation of any mice: 2
